“And” between values parts separate entries of the source, which are not always exact repeats. Identical values can stand only once.
Tested on: children undergoing tonsillectomy
Assay: Opioid-related adverse effects and PACU stay by sex, age and morphine dose (Example 6)
[1] = F, total morphine 0.2-<0.3 mg/kg
[2] = M, total morphine 0.2-<0.3 mg/kg
[3] = girls 8-13 years, total morphine <0.3 mg/kg
[4] = girls 8-13 years, total morphine >=0.3 mg/kg
[5] = girls <8 years, total morphine <0.3 mg/kg
[6] = girls <8 years, total morphine >=0.3 mg/kg
[7] = girls >13 years, total morphine <0.3 mg/kg
[8] = girls >13 years, total morphine >=0.3 mg/kg

Excerpt: This was a prospective clinical observational study using a standard perioperative anesthetic and surgical practices and standard postoperative nursing care within the tonsillectomy population.
Clinical criteria for OSA designation included sleep disordered breathing with a history of snoring and either sleep pauses lasting more than 10 seconds or daytime drowsiness. Children were excluded from the study if they or their parents were non-English speaking.
As part of T/TA standard practice at this institution, all children receive prophylactic ondansetron (0.1 mg/kg) and dexamethasone (0.1 mg/kg) intraoperatively. Anesthesia is induced via sevoflurane inhaled induction followed by a propofol (2 mg/kg) bolus to facilitate endotracheal intubation. Anesthesia was maintained with sevoflurane without the use of neuromuscular blockade.
Adverse effects were measured by two sets of binary outcomes: 1) opioid-related side effects including RD, nausea/vomiting (PONV) and pruritus; 2) prolonged PACU stay secondary to respiratory depression or nausea/vomiting.
Duration of PACU stay (time to achieve PACU discharge readiness) was defined as the duration in PACU before achieving the following discharge criteria. […] This discharge readiness time is different from actual PACU discharge time as delays due to social reasons (e.g. waiting for car ride, etc.) were not included.
Prior to analyses, data quality was examined. […] To assess the sex effect, outcome measurements were first compared between boys and girls with and without OSA stratification. Continuous variables were compared using t-test or Wilcoxon rank-sum test and categorical variables were compared using Fisher's exact test.
Effects of age, weight, BMI z scores, and OSA were also tested as covariates for all the outcomes. When significant effects were detected (p<0.05), covariates were included in the final models. Binary outcomes were analyzed using logistic regression. Maximum NRS was analyzed using linear regression. Maximum FLACC score was analyzed by using a zero-inflated negative binomial model because of the inflated frequency of score 0. The total number of analgesic interventions followed a Poisson distribution and was analyzed using a generalized linear model.

## CN1CC[C@]23c4c5ccc(O)c4O[C@H]2[C@@H](O)C=C[C@H]3[C@H]1C5 [morphine]
F, All
  PONV, number of cases: 22
  PONV, proportion: (10%)
  Prolonged stay in PACU due to PONV, proportion: (5%)
  Prolonged stay in PACU due to RD, number of cases: 11
  Prolonged stay in PACU due to RD, proportion: (5%)
  Pruritus, number of cases: 88
  Pruritus, proportion: (41%)
  RD, proportion: (9%)
F, OSA No
  PONV, number of cases: 11
  PONV, proportion: (9%)
  Prolonged stay in PACU due to PONV, proportion: (2%)
  Prolonged stay in PACU due to RD, number of cases: 5
  Prolonged stay in PACU due to RD, proportion: (4%)
  Pruritus, number of cases: 41
  Pruritus, proportion: (33%)
  RD, number of cases: 9
  RD, proportion: (7%)
F, OSA Yes
  PONV, number of cases: 11
  PONV, proportion: (12%)
  Prolonged stay in PACU due to PONV, proportion: (8%)
  Prolonged stay in PACU due to RD, number of cases: 6
  Prolonged stay in PACU due to RD, proportion: (6%)
  Pruritus, number of cases: 47
  Pruritus, proportion: (50%)
  RD, proportion: (12%)
[1]
  PONV, number of cases (%): 8 (16)
  Prolonged stay in PACU due to PONV, number of cases (%): 3 (6)
  Prolonged stay in PACU due to RD, number of cases (%): 1 (2)
  Pruritus, number of cases (%): 42 (84)
F, total morphine <0.2 mg/kg
  PONV, number of cases (%): 4 (10)
  Prolonged stay in PACU due to PONV, number of cases (%): 2 (5)
  Prolonged stay in PACU due to RD, number of cases (%): 2 (5)
  Pruritus, number of cases (%): 29 (73)
F, total morphine ≥0.3 mg/kg
  PONV, number of cases (%): 10 (43)
  Prolonged stay in PACU due to PONV, number of cases (%): 5 (22)
  Prolonged stay in PACU due to RD, number of cases (%): 8 (35)
  Pruritus, number of cases (%): 17 (74)
  RD, number of cases (%): 12 (52)
M, All
  PONV, number of cases: 14
  PONV, proportion: (6%)
  Prolonged stay in PACU due to PONV, proportion: (4%)
  Prolonged stay in PACU due to RD, number of cases: 13
  Prolonged stay in PACU due to RD, proportion: (6%)
  Pruritus, number of cases: 79
  Pruritus, proportion: (36%)
  RD, proportion: (8%)
M, OSA No
  PONV, number of cases: 7
  PONV, proportion: (6%)
  Prolonged stay in PACU due to PONV, proportion: (5%)
  Prolonged stay in PACU due to RD, number of cases: 8
  Prolonged stay in PACU due to RD, proportion: (6%)
  Pruritus, number of cases: 51
  Pruritus, proportion: (41%)
  RD, number of cases: 12
  RD, proportion: (10%)
M, OSA Yes
  PONV, number of cases: 7
  PONV, proportion: (7%)
  Prolonged stay in PACU due to PONV, proportion: (2%)
  Prolonged stay in PACU due to RD, number of cases: 5
  Prolonged stay in PACU due to RD, proportion: (5%)
  Pruritus, number of cases: 28
  Pruritus, proportion: (30%)
  RD, number of cases: 6
  RD, proportion: (6%)
[2]
  PONV, number of cases (%): 7 (15)
  Prolonged stay in PACU due to PONV, number of cases (%): 3 (6)
  Prolonged stay in PACU due to RD, number of cases (%): 3 (6)
  Pruritus, number of cases (%): 35 (76)
  RD, number of cases (%): 6 (13)
M, total morphine <0.2 mg/kg
  PONV, number of cases (%): 6 (18)
  Prolonged stay in PACU due to PONV, number of cases (%): 4 (12)
  Prolonged stay in PACU due to RD, number of cases (%): 5 (15)
  Pruritus, number of cases (%): 24
  RD, number of cases (%): 4 (12)
M, total morphine ≥0.3 mg/kg
  PONV, number of cases (%): 1 (4)
  Prolonged stay in PACU due to PONV, number of cases (%): 1 (4)
  Prolonged stay in PACU due to RD, number of cases (%): 5 (20)
  Pruritus, number of cases (%): 20 (80)
  RD, number of cases (%): 8 (32)
[3]
  PONV, number of cases (%): 2 (5)
  Prolonged stay in PACU due to PONV, number of cases (%): 2 (5)
  Prolonged stay in PACU due to RD, number of cases (%): 1 (2)
  Respiratory depression (RD), number of cases (%): 4 (9)
[4]
  PONV, number of cases (%): 1 (11)
  Prolonged stay in PACU due to PONV, number of cases (%): 1 (11)
  Prolonged stay in PACU due to RD, number of cases (%): 3 (33)
  Respiratory depression (RD), number of cases (%): 5 (56)
[5]
  PONV, number of cases (%): 7 (19)
  Prolonged stay in PACU due to PONV, number of cases (%): 2 (5)
  Prolonged stay in PACU due to RD, number of cases (%): 2 (5)
  Respiratory depression (RD), number of cases (%): 3 (8)
[6]
  PONV, number of cases (%): 6 (60)
  Prolonged stay in PACU due to PONV, number of cases (%): 4 (40)
  Prolonged stay in PACU due to RD, number of cases (%): 4 (40)
  Respiratory depression (RD), number of cases (%): 5 (50)
[7]
  PONV, number of cases (%): 1 (9)
  Prolonged stay in PACU due to PONV, number of cases (%): 1 (9)
  Prolonged stay in PACU due to RD, number of cases (%): 0 (0)
  Respiratory depression (RD), number of cases (%): 1 (9)
[8]
  PONV, number of cases (%): 0 (0)
  Prolonged stay in PACU due to PONV, number of cases (%): 0 (0)
  Prolonged stay in PACU due to RD, number of cases (%): 1 (25)
  Respiratory depression (RD), number of cases (%): 2 (50)
girls, morphine exceeded 0.3 mg/kg, multivariate models
  probability of all opioid adverse effects except for pruritus: increased significantly
White boys, <0.3 mg/kg total morphine
  duration of stay in PACU: 88.3 ± 3.6 min
White boys, ≥0.3 mg/kg total morphine
  duration of stay in PACU: 99.7 ± 6.4 min
White girls, <0.3 mg/kg total morphine
  duration of stay in PACU: 82.2 ± 3.3 min
White girls, ≥0.3 mg/kg total morphine, 0.3 mg/kg
  duration of stay in PACU: 111 ± 6.6 min and 111.1 ± 6.6 min

From US10878939B2, “Methods and compositions for personalized pain management” (Children's Hospital Medical Center, priority 2014, dated 2020)
